Results published in patent publication US9695155B2, “Herbicidal substituted pyrimidinyloxy benzene compounds” (E. I. DU PONT DE NEMOURS AND COMPANY, priority 2013, dated 2017).

Tests used:
[1] = test system: ragweed; experiment: Test C postemergence; type: in vivo, Ambrosia elatior; settings: Ambrosia artemisiifolia, post-emergence
Procedure, shortened: (§1)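 Visual injury score versus untreated controls, 0 = no effect, 100 = complete control, taken 13 to 15 days after treatment in the greenhouse. Pre-emergence pots held loam/sand; post-emergence plants grew in sphagnum peat/vermiculite mix and were sprayed at the 1- to 4-leaf stage.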

[2] = test system: large (Lg) crabgrass; experiment: Test C preemergence; type: in vivo, Digitaria sanguinalis; settings: Digitaria sanguinalis, pre-emergence
Procedure, shortened: as §1

[3] = test system: large (Lg) crabgrass; experiment: Test A preemergence; type: in vivo, Digitaria sanguinalis; settings: Digitaria sanguinalis, pre-emergence, 240 h, read-out: Crabgrass, Large plant response rating
Procedure, shortened: (§2)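 Compounds in non-phytotoxic solvent with surfactant applied as soil spray preemergence, or postemergence to plants 2-10 cm at one- to two-leaf stage, in loam/sand. After approximately 10 days in greenhouse, injury rated visually versus untreated controls, 0 (no effect) to 100 (complete control).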

[4] = test system: rice; experiment: Test B flooded paddy test; type: in vivo, Oryza sativa; settings: Oryza sativa; Flood, 250 g ai/ha; 0 to 100 scale where 0 is no effect and 100 is complete control; read-out: Plant response rating, Rice
Procedure, shortened: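 2-leaf stage plants; pots flooded to 3 cm, compound added to paddy water, depth maintained. Greenhouse 13–15 d. Visual rating vs untreated controls, 0 (no effect) to 100 (complete control); dash = no result.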

[5] = test system: wheat, winter; experiment: Test C postemergence; type: in vivo, Triticum aestivum; settings: Triticum aestivum, post-emergence
Procedure, shortened: as §1

[6] = test system: wild oat; experiment: Test C postemergence; type: in vivo, Avena fatua; settings: Avena fatua, post-emergence
Procedure, shortened: as §1

[7] = test system: lambsquarters; experiment: Test C preemergence; type: in vivo, Chenopodium album; settings: Chenopodium album, pre-emergence
Procedure, shortened: as §1

[8] = test system: johnsongrass; experiment: Test C preemergence; type: in vivo, Sorghum halepense; settings: Sorghum halepense, pre-emergence
Procedure, shortened: as §1

[9] = test system: kochia; experiment: Test C postemergence; type: in vivo, Kochia scoparia; settings: Bassia scoparia, post-emergence
Procedure, shortened: as §1

[10] = test system: corn; experiment: Test A preemergence; type: in vivo, Zea mays; settings: Zea mays, pre-emergence, 240 h, read-out: Corn plant response rating
Procedure, shortened: as §2

[11] = 125 g ai/ha, 0 to 100 scale where 0 is no effect and 100 is complete control
[12] = 500 g ai/ha, 0 to 100 scale, 0 no effect, 100 complete control, approx. 10 days

In the case of `Clc1cnc(Oc2ccccc2-n2cc(Br)cn2)nc1` [Compound 7, 2-[2-(4-bromo-1H-pyrazol-1-yl)phenoxy]-5-chloropyrimidine], the pest or weed control at 125 g/ha ([1]; 125 g ai/ha, postemergence, read-out: Plant response rating (0 to 100), Ragweed) is reported as 55%, the pest or weed control at 250 g/ha ([1]; 250 g ai/ha, postemergence, read-out: Plant response rating (0 to 100), Ragweed) is reported as 60% and the pest or weed control at 31 g/ha ([1]; Postemergence, 31 g ai/ha, scale 0 to 100 (0 no effect, 100 complete control), 13 to 15 days, read-out: Plant response rating, Ragweed) is reported as 50%. It also gave a pest or weed control at 62 g/ha ([1]; Postemergence, 62 g ai/ha, scale 0 to 100 (0 no effect, 100 complete control), read-out: Plant response rating, Ragweed) of 55%, a pest or weed control at 62 g/ha ([2]; 62 g ai/ha, preemergence, scale 0 (no effect) to 100 (complete control), read-out: Crabgrass, Large plant response rating) of 98% and a pest or weed control at 125 g/ha ([2]; 125 g ai/ha, preemergence, scale 0 (no effect) to 100 (complete control), read-out: Crabgrass, Large plant response rating) of 100%. It also gave a pest or weed control at 250 g/ha ([2]; 250 g ai/ha, preemergence, scale 0 (no effect) to 100 (complete control), read-out: Crabgrass, Large plant response rating) of 100%, a pest or weed control at 31 g/ha ([2]; Preemergence, 31 g ai/ha, scale 0 to 100, 0 no effect, 100 complete control, read-out: Plant response rating, Crabgrass, Large) of 80% and a pest or weed control at 125 g/ha [3, 11] of 100%. For the same compound, the pest or weed control at 500 g/ha [3, 12] was 100%, the plant injury at 250 g/ha [4] was 20% and the plant injury at 125 g/ha ([5]; 125 g ai/ha, postemergence, read-out: Plant response rating (0 to 100), Wheat) was 10%. It also gave a plant injury at 250 g/ha ([5]; 250 g ai/ha, postemergence, read-out: Plant response rating (0 to 100), Wheat) of 15%, a plant injury at 31 g/ha ([5]; Postemergence, 31 g ai/ha, scale 0 to 100 (0 no effect, 100 complete control), 13 to 15 days, read-out: Plant response rating, Wheat) of 5% and a plant injury at 62 g/ha ([5]; Postemergence, 62 g ai/ha, scale 0 to 100 (0 no effect, 100 complete control), read-out: Plant response rating, Wheat) of 5%. For the same compound, the pest or weed control at 125 g/ha ([6]; 125 g ai/ha, postemergence, read-out: Plant response rating (0 to 100), Oat, Wild) was 35%, the pest or weed control at 250 g/ha ([6]; 250 g ai/ha, postemergence, read-out: Plant response rating (0 to 100), Oat, Wild) was 55% and the pest or weed control at 31 g/ha ([6]; Postemergence, 31 g ai/ha, scale 0 to 100 (0 no effect, 100 complete control), 13 to 15 days, read-out: Plant response rating, Oat, Wild) was 5%. For the same compound, the pest or weed control at 62 g/ha ([6]; Postemergence, 62 g ai/ha, scale 0 to 100 (0 no effect, 100 complete control), read-out: Plant response rating, Oat, Wild) was 35%, the pest or weed control at 62 g/ha ([7]; 62 g ai/ha, preemergence, scale 0 (no effect) to 100 (complete control), read-out: Lambsquarters plant response rating) was 80% and the pest or weed control at 125 g/ha ([7]; 125 g ai/ha, preemergence, scale 0 (no effect) to 100 (complete control), read-out: Lambsquarters plant response rating) was 85%. It also gave a pest or weed control at 250 g/ha ([7]; 250 g ai/ha, preemergence, scale 0 (no effect) to 100 (complete control), read-out: Lambsquarters plant response rating) of 95%, a pest or weed control at 31 g/ha ([7]; Preemergence, 31 g ai/ha, scale 0 to 100, 0 no effect, 100 complete control, read-out: Plant response rating, Lambsquarters) of 80% and a pest or weed control at 62 g/ha ([8]; 62 g ai/ha, preemergence, scale 0 (no effect) to 100 (complete control), read-out: Johnsongrass plant response rating) of 5%. It also gave a pest or weed control at 125 g/ha ([8]; 125 g ai/ha, preemergence, scale 0 (no effect) to 100 (complete control), read-out: Johnsongrass plant response rating) of 10%, a pest or weed control at 250 g/ha ([8]; 250 g ai/ha, preemergence, scale 0 (no effect) to 100 (complete control), read-out: Johnsongrass plant response rating) of 75% and a pest or weed control at 31 g/ha ([8]; Preemergence, 31 g ai/ha, scale 0 to 100, 0 no effect, 100 complete control, read-out: Plant response rating, Johnsongrass) of 0%. For the same compound, the pest or weed control at 125 g/ha ([9]; 125 g ai/ha, postemergence, read-out: Plant response rating (0 to 100), Kochia) was 100%, the pest or weed control at 250 g/ha ([9]; 250 g ai/ha, postemergence, read-out: Plant response rating (0 to 100), Kochia) was 100% and the pest or weed control at 31 g/ha ([9]; Postemergence, 31 g ai/ha, scale 0 to 100 (0 no effect, 100 complete control), 13 to 15 days, read-out: Plant response rating, Kochia) was 98%. It also gave a pest or weed control at 62 g/ha ([9]; Postemergence, 62 g ai/ha, scale 0 to 100 (0 no effect, 100 complete control), read-out: Plant response rating, Kochia) of 98%, a plant injury at 125 g/ha [10, 11] of 0% and a plant injury at 500 g/ha [10, 12] of 30%.
